The text below walks through data of patent US8937039B2, “Peptide-based peroxidase inhibitors and methods of using same” (The Medical College of Wisconsin, Inc., priority 2009, dated 2015).

“Also recorded” adds a separate entry of the source. Residues, ends and D or L forms follow the SMILES beside them.

The target in one assay is T1, MPO (Homo sapiens, UniProt P05164).
T1 sequence (P05164 49-745): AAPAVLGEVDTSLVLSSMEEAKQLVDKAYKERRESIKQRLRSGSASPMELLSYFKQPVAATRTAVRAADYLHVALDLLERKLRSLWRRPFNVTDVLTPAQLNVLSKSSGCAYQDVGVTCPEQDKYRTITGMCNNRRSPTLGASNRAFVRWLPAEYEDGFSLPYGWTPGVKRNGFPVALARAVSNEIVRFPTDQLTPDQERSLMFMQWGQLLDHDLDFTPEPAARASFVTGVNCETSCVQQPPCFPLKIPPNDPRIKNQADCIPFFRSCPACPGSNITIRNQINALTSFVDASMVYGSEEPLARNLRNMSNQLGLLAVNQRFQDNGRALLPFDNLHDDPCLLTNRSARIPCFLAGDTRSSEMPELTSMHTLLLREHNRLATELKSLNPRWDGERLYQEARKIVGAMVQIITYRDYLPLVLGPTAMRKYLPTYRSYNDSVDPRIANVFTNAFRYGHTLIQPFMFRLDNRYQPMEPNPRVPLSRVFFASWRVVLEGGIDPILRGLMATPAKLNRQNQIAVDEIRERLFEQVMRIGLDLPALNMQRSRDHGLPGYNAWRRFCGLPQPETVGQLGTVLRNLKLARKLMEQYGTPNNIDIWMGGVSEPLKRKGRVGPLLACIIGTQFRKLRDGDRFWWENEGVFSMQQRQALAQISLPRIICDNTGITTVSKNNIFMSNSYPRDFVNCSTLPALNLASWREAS
Description: MPO-mediated LDL oxidation (conjugated diene formation, 234 nm). As to conditions: for Conjugated diene formation in LDL (in words): MPO/H2O2 (300 μM)/nitrite, more than 2 hours. Also on record: purchased Lee Biosolutions (St. Louis, Mo.). It is filed as biochemical. The method, then: MPO-mediated oxidation of LDL. […] LDL oxidation was monitored at 234 nm at room temperature on a HP UV/VIS spectrometer. Absorbance traces represent the average of duplicate experiments.
MPO-mediated LDL Oxidation. […] Rates of LDL oxidation were monitored at room temperature at 234 nm, the wavelength maximum for conjugated dienes.
MPO-mediated LDL Conjugated Diene Formation: Reaction mixtures contained LDL (0.15 mg/mL), NaNO2 (100 μM), H2O2 (100 μM), MPO (20 nM) and increasing concentrations of KYC or equimolar concentrations of various compounds in a phosphate buffer (100 mM, pH 7.4) containing DTPA (100 μM). Rates of LDL conjugated diene formation were determined by following changes in absorbance at 234 nm, the wavelength maximum for conjugated dienes, on a UV-Vis spectrophotometer (Agilent Model 8453) at room temperature.

The next assay has as its system SCD mice. The assay is described as follows: Vessel wall thickness of facialis arteries of treated SCD mice. The class given is in vivo, mouse. The following applies: KYC three weeks; P=0.10. As to the method:
Vessel Wall Thickness. After completing the vasodilatation studies, the pressurized vessels were maximally dilated by addition of papaverine (10^−4 mol/L, 4 min), and outside and inside diameters recorded. An index of wall thickness was calculated using the following formula; ([…]/2)/outside diameter, as previously described.

`CC(=O)N[C@@H](CCCCN)C(=O)N[C@@H](Cc1ccc(O)cc1)C(=O)N[C@@H](CS)C(N)=O` [KYC, N-acetyl Lysyltyrosylcysteine Amide] (Ac-Lys-Tyr-Cys-NH2): the “Conjugated diene formation in LDL (in words)” value at MPO (20 μM KYC) and at MPO (100 μM KYC) was “totally suppresses” throughout. Also, the “MPO/H2O2/nitrite-mediated LDL oxidation (in words)” value on MPO (25 μM, H2O2 100 μM, NaNO2 100 μM) is “completely suppressed”. For the same molecule, at MPO (25 μM, without NaNO2), the “MPO/H2O2-mediated LDL oxidation in the absence of nitrite (in words)” value was “inhibited; also recorded: did not increase LDL oxidation”. Besides, in the assay on SCD mice, the “Vessel wall thickness (in words)” value is given as “reduces vessel wall thickness”.
